Entries after “also recorded” stand apart in the source; their conditions may differ.
Tests used:
[1] = system: Skw3 control transductant 17D (Abacavir-allergic donor); assay: TCR-transductant stimulation assay, control transductant 17D; assay type: cell-based, human; settings: control 17D, 24 h, heterologous EBV-transformed B cells, no drug 1.4
Description: (§1) Skw3 cell lines (Leibniz Institute DSMZ, Brunswick, Germany, (50)) were transduced as described previously (51). […] The resulting retroviruses were used to transduce the TCR-defective Skw3 cell line, which also expresses the human CD8 coreceptor. The TCR-transduced cells outgrowing in selective medium were picked, and the expression of the correct TCR α and β was further assessed by flow cytometry, using a FACS-Canto-I device (BD-Biosciences, San Jose, CA, USA). The transduced cells with stable TCR expression were selected for assessment of reactivity and specificity, which was measured by TCR-induced CD69 expression. Skw3 cell lines expressing the cognate TCR α and β chains were cocultured with autologous EBV-transformed B-lymphoblastoid cell lines (52) at 1:2 ratio at 37° C. Tested drugs were added to the cocultures with the indicated concentrations. After 24 h, cells were stained with anti-human CD3 (Biolegend) and anti-human CD69 (Biolegend) and analysed by flow cytometry. […] Experiments were repeated at least 2 times. […] Heterologous EBV-transformed B cells were also used to stimulate control transductants.

[2] = system: TCRαβ Skw3 transfectant C2 (TCR of top clone of patient TEN-7); assay type: cell-based, human; settings: 24 h, heterologous PBMCs from healthy donors, no drug 31.7
Description: Skw3 cell lines (Leibniz Institute DSMZ, Brunswick, Germany, (50)) were transduced as described previously (51). […] The resulting retroviruses were used to transduce the TCR-defective Skw3 cell line, which also expresses the human CD8 coreceptor. The TCR-transduced cells outgrowing in selective medium were picked, and the expression of the correct TCR α and β was further assessed by flow cytometry, using a FACS-Canto-I device (BD-Biosciences, San Jose, CA, USA). The transduced cells with stable TCR expression were selected for assessment of reactivity and specificity, which was measured by TCR-induced CD69 expression. Skw3 cell lines expressing the cognate TCR α and β chains were cocultured with autologous EBV-transformed B-lymphoblastoid cell lines (52) at 1:2 ratio at 37° C. Tested drugs were added to the cocultures with the indicated concentrations. After 24 h, cells were stained with anti-human CD3 (Biolegend) and anti-human CD69 (Biolegend) and analysed by flow cytometry. […] Experiments were repeated at least 2 times. […] Then, the productive rearranged TCRα and TCRβ chains were transduced into Skw3 cells, a TCR defective lymphoma line (28) (data not shown). […] The following day, we measured CD69 expression at the surface of Skw3 cells, as marker for TCR stimulation. […]

[3] = system: human CD45+ cells (PBMCs from a TEN patient); assay: Human PBMC expansion in lamotrigine- versus vehicle-treated NSG recipient mice; assay type: in vivo, mouse
Procedure: NSG animals were adoptively transferred at day 0 with 1.10^6 millions PBMCs collected from a TEN patient, 1 year after disease recovery. Animals were then administrated with lamotrigine (the culprit drug; 0.1 mg/kg/day) or vehicle by oral gavage, every day, from day 4. Results depict the kinetic of human CD45+ cell expansion measured by flow cytometry in the blood of NSG mice throughout the protocol, or the spleen at day 29. Results are expressed as mean and individual % of humanization, calculated according to the following formula: % human CD45+ cells/% (mouse+human) CD45+ cells. Six mice per group were used in this experiment. NSG animals were adoptively transferred at day 0 with 1.10^6 millions PBMCs collected from a TEN patient (1 year after disease recovery) or from a healthy donor. Animals were then administrated with lamotrigine (the culprit drug; 0.1 mg/kg/day) or vehicle, by oral gavage every day, from day 4. Results depict the expansion of human CD45+ cells measured by flow cytometry in the spleen of NSG mice, 29 days after cell transfer. Results are expressed as mean and individual % of humanization, calculated according to the following formula: % human CD45+ cells/% (mouse+human) CD45+ cells. Six mice per group were used in this experiment. NSG animals were adoptively transferred at day 0 with 1.10^6 millions PBMCs collected from a TEN patient (1 year after disease recovery). Animals were then administrated with lamotrigine (the culprit drug; 0.1 mg/kg/day), by oral gavage every day, from day 4. Results depict the expression of CD38 (A) and Granzyme B and Granulysin (B) markers on CD4+ and CD8+ T cells as measured by flow cytometry in the spleen of NSG mice, 43 days after cell transfer. Model description: We generated a surrogate model of TEN disease in mouse, by reconstituting NSG animals with 1.10^6 millions of peripheral blood mononuclear cells (PBMCs) collected from a TEN patient, 1 year after disease recovery. The patients' T cells were then reactivated with the offending drug delivered to animals by oral gavage.

[4] = system: relapsed or refractory multiple myeloma; settings: cited from earlier work
[5] = system: plasmablasts and NK cells; settings: cited from earlier work
NK cells = settings: preclinical data; cited from earlier work
[6] = system: relapsed or refractory multiple myeloma; settings: monotherapy or with dexamethasone or dexamethasone and an immunomodulatory drug; RRMM; doses up to 16 mg/kg intravenous infusion; cited from earlier work
[7] = system: Skw3 control transductant UNO H13 (Sulfamethoxazole-allergic donor); assay: TCR-transductant stimulation assay, control transductant UNO H13; assay type: cell-based, human; settings: 24 h, heterologous EBV-transformed B cells, no drug 5.2
Description: as §1

COc1ccnc(C[S+]([O-])c2nc3ccc(OC(F)F)cc3[nH]2)c1OC (centres unmarked) [Pantoprazole]
% of CD69 expression in CD3+ transfectants, Concentration 1 ([1]; Abacavir 1 μg/ml, Pantoprazole 12.5 μg/ml): 1.8%
% of CD69 expression in CD3+ transfectants, Concentration 2 ([1]; Abacavir 10 μg/ml, Pantoprazole 25 μg/ml): 1.8%
% of CD69 expression in CD3+ transfectants, Concentration 3 ([1]; Abacavir 20 μg/ml, Pantoprazole 50 μg/ml): 1.7%
% of CD69 expression in CD3+ transfectants, Concentration 2 ([2]; Pantoprazole 10 μg/ml): 40.1%
% of CD69 expression in CD3+ transfectants, Concentration 3 ([2]; Pantoprazole 50 μg/ml): 47.4%

Nc1nnc(-c2cccc(Cl)c2Cl)c(N)n1 [lamotrigine]
expanded CD8+ T cells expressing CD38, Granzyme B and Granulysin markers ([3]; lamotrigine 0.1 mg/kg/day from day 4, spleen, 43 days after cell transfer (FIG. 11)): significant part
number of animals with a high % of humanization, culprit drug group versus vehicle group ([3]; lamotrigine 0.1 mg/kg/day oral gavage from day 4, TEN patient PBMCs, blood and spleen, day 29 (FIG. 9)): largely superior
proliferation/expansion of TEN PBMCs versus healthy donor PBMCs in response to lamotrigine ([3]; lamotrigine 0.1 mg/kg/day oral gavage from day 4, spleen, 29 days after cell transfer (FIG. 10)): Preferential expansion of TEN PBMCs; also recorded: superior ability of TEN cells to proliferate

TAK-079: CD38-binding fully human IgG 1 λ mAb being developed by Takeda
objective response rate ([4]; heavily pre-treated patients with RRMM, subcutaneous injection): 43%
safety/tolerability in patients ([4]; human, in vivo, sc): safe and well-tolerated
tolerability in healthy populations ([5]; healthy populations): well tolerated
depletion of plasmablasts and NK cells ([5]; subcutaneous injection): more durable in depleting plasmablasts and NK cells

MOR202: fully human anti-CD38 antibody being developed by Morphosys (CAS Number 2197112-39-1)
effect on NK cells (NK cells): reduces NK cells
safety and efficacy [6]: safe and effective

CC(C)Cc1ccc(C(C)C(=O)O)cc1 (centres unmarked) [Ibuprofen]
% of CD69 expression in CD3+ transfectants, Concentration 1 ([7]; Ibuprofen 20 μg/ml): 4.6%
% of CD69 expression in CD3+ transfectants, Concentration 2 ([7]; Ibuprofen 100 μg/ml): 10.5%
% of CD69 expression in CD3+ transfectants, Concentration 3 ([7]; Ibuprofen 200 μg/ml): 12.4%

Source: patent publication US20240003879A1, “METHODS FOR DIAGNOSIS AND MONITORING OF TOXIC EPIDERMAL NECROLYSIS” (INSERM (INSTITUT NATIONAL DE LA SANTÉ ET DE LA RECHERCHE …, priority 2020, published 2024)
